Drawing on patent US9474790B2, “Stable, protracted GLP-1/glucagon receptor co-agonists for medical use” (Novo Nordisk A/S, priority 2013, dated 2016), this text covers THT assay Lag time (Ex. 76) and EC50 for 5 compounds.

The nature of data set [1]: Thioflavin T (ThT) fibrillation assay for physical stability. The format is physicochemical. The conditions noted are these: 250 μM in 10 mM HEPES buffer, pH 7.5, 37° C., shaking 960 rpm. In a few lines: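 Fibrillation was followed by ThT (1 μM) fluorescence every 20 min, 444/485 nm, for 250 μM peptide in 10 mM HEPES pH 7.5 shaken at 960 rpm, 37° C. Lag time (t0−2τ) and apparent rate constant (1/τ) come from a sigmoidal fit. Recovery is % of initial concentration remaining soluble after centrifugation and filtration (RP-HPLC).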

The next data set concerns the target T1, human GLP-1 receptor (Homo sapiens, UniProt P43220).
T1 construct: expressed in transfected cells; host or cells: BHK cells (parent BHKTS13), clone FCW467-12A/KZ10-1, with CRE luciferase
Description: GLP-1 receptor potency, CRE luciferase reporter gene assay in BHK cells. In kind it is cell-based. Conditions: BHK cells expressing human GLP-1 receptor, read-out: EC50 GLP-1R. In a few lines: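 Potency as cAMP-driven firefly luciferase signal after 3 h, 37° C exposure to 10-fold dilutions (final 1×10EE-13–1×10EE-6 M). Stable hGLP-1R/CRE-luc BHK clone, 5×10EE3 cells/well, medium containing 2% ovalbumin and 0.2% Pluronic F-68; EC50 (pM) from variable-slope non-linear regression.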
Background: In a reporter assay the amount or activity of a reporter protein is the signal.

Numbered stars: 1 amine (or outer) side, 2 acyl side, 3 side chain; on linkers, the order of the positions; unused ones are H or OH. Bridge positions count the residues as written; N and C are the ends. Square brackets hold non-standard residues; d marks the D form. Side chains are listed from the residue outwards. Peptide text beside a SMILES is read from it. I, II: the chains in the order shown. * marks the point of attachment. C18 diacid = O=C(O)CCCCCCCCCCCCCCCCC(=O)*; γGlu = O=C(O)[C@H](CCC(=O)[*:2])N[*:1]; Ac4c = NC1(C(=O)O)CCC1; AEEA = NCCOCCOCC(=O)O; Aib = CC(C)(N)C(=O)O

T1 sequence (P43220 24-463): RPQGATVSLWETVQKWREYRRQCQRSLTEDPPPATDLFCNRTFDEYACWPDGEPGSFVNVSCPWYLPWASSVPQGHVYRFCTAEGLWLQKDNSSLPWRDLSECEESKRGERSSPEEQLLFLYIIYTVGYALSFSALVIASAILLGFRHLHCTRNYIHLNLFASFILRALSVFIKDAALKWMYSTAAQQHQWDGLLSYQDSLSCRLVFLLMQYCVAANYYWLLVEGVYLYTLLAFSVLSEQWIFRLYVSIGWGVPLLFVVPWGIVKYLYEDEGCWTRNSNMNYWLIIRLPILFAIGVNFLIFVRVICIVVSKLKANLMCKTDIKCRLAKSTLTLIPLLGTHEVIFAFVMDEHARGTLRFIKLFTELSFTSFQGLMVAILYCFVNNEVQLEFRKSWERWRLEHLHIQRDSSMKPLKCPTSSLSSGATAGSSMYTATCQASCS

Consider `CC(C)C[C@H](NC(=O)[C@H](Cc1ccc(O)cc1)NC(=O)[C@H](CCCCN)NC(=O)[C@H](CO)NC(=O)[C@H](CC(C)C)NC(=O)[C@H](CC(=O)O)NC(=O)[C@H](CO)NC(=O)[C@@H](NC(=O)[C@H](Cc1ccccc1)NC(=O)[C@@H](NC(=O)CNC(=O)[C@H](Cc1c[nH]cn1)NC(=O)C(C)(C)NC(=O)[C@@H](N)Cc1c[nH]cn1)[C@@H](C)O)[C@@H](C)O)C(=O)N[C@@H](CCC(=O)O)C(=O)N[C@@H](CO)C(=O)N[C@@H](CCCNC(=N)N)C(=O)N[C@@H](CCCNC(=N)N)C(=O)N[C@@H](C)C(=O)N[C@@H](CCCNC(=N)N)C(=O)N[C@@H](CC(=O)O)C(=O)N[C@@H](Cc1ccccc1)C(=O)N[C@H](C(=O)N[C@@H](CCC(N)=O)C(=O)N[C@@H](Cc1c[nH]c2ccccc12)C(=O)N[C@@H](CC(C)C)C(=O)N[C@@H](CC(C)C)C(=O)N[C@@H](CCCCNC(=O)CNC(=O)[C@H](CO)NC(=O)[C@H](CCC(=O)O)NC(=O)CNC(=O)[C@H](CO)NC(=O)CC[C@H](NC(=O)CC[C@H](NC(=O)CCCCCCCCCCCCCCCCC(=O)O)C(=O)O)C(=O)O)C(=O)N[C@H](C(N)=O)[C@@H](C)O)C(C)C` [Example 37, N^ε28-[2-[[(2S)-2-[[(2S)-4-carboxy-2-[[2-[[(2S)-2-[[(4S)-4-carboxy-4-[[(4S)-4-carboxy-4-(17-carboxyheptadecanoylamino)butanoyl]amino]butanoyl]amino]-3-hydroxypropanoyl]amino]acetyl]amino]butanoyl]amino]-3-hydroxypropanoyl]amino]acetyl]-[Aib2,His3,Leu10,Glu15, Arg20,Leu27,Lys28]-Glucagon amide] (I: H-H[Aib]HGTFTSDLSKYLESRRARDFVQWLLKT-NH2 / II: {C18 diacid-γGlu-γGlu}-SGESG; amide I:28-II:C; N-terminus assumed), for which the THT assay Lag time (Ex. 76) in data set [1] is 45 h. Also, at human GLP-1 receptor, the 50% effective concentration (EC50) was found to be 4 pM.
In data set [1], `CC(C)C[C@H](NC(=O)[C@H](CC(=O)O)NC(=O)[C@H](CC(C)C)NC(=O)[C@H](Cc1ccc(O)cc1)NC(=O)[C@H](CCCCN)NC(=O)[C@H](CO)NC(=O)[C@H](CC(C)C)NC(=O)[C@H](CC(=O)O)NC(=O)[C@H](CO)NC(=O)[C@@H](NC(=O)[C@H](Cc1ccccc1)NC(=O)[C@@H](NC(=O)CNC(=O)[C@H](CCC(N)=O)NC(=O)C1(NC(=O)[C@@H](N)Cc2c[nH]cn2)CCC1)[C@@H](C)O)[C@@H](C)O)C(=O)N[C@@H](CCCNC(=N)N)C(=O)N[C@@H](CCCNC(=N)N)C(=O)N[C@@H](C)C(=O)N[C@@H](CCCNC(=N)N)C(=O)N[C@@H](CCC(=O)O)C(=O)N[C@@H](Cc1ccccc1)C(=O)N[C@H](C(=O)N[C@@H](CCC(N)=O)C(=O)N[C@@H](Cc1c[nH]c2ccccc12)C(=O)N[C@@H](CC(C)C)C(=O)N[C@@H](CC(C)C)C(=O)N[C@@H](CCCCNC(=O)CC[C@H](NC(=O)CC[C@H](NC(=O)COCCOCCNC(=O)COCCOCCNC(=O)CC[C@H](NC(=O)CC[C@H](NC(=O)CCCCCCCCCCCCCCCCC(=O)O)C(=O)O)C(=O)O)C(=O)O)C(=O)O)C(=O)N[C@H](C(N)=O)[C@@H](C)O)C(C)C` [Example 49, N^ε28-[(4S)-4-carboxy-4-[[(4S)-4-carboxy-4-[[2-[2-[2-[[2-[2-[2-[[(4S)-4-carboxy-4-[[(4S)-4-carboxy-4-(17-carboxyheptadecanoylamino)butanoyl]amino]butanoyl]amino]ethoxy]ethoxy]acetyl]amino]ethoxy]ethoxy]acetyl]amino]butanoyl]amino]butanoyl]-[Acb2,Leu10,Leu16,Arg20,Glu21,Leu27,Lys28]-Glucagon amide] (H-H[Ac4c]QGTFTSDLSKYLDLRRAREFVQWLLK([γGlu-γGlu-AEEA-AEEA-γGlu-γGlu-C18 diacid])T-NH2; N-terminus assumed) showed a THT assay Lag time (Ex. 76) of 45 h. Also, the EC50 on human GLP-1 receptor was 17 pM.
Consider `CC(C)C[C@H](NC(=O)[C@H](Cc1ccc(O)cc1)NC(=O)[C@H](CCCCN)NC(=O)[C@H](CO)NC(=O)[C@H](CC(C)C)NC(=O)[C@H](CC(=O)O)NC(=O)[C@H](CO)NC(=O)[C@@H](NC(=O)[C@H](Cc1ccccc1)NC(=O)[C@@H](NC(=O)CNC(=O)[C@H](CCC(N)=O)NC(=O)C1(NC(=O)[C@@H](N)Cc2c[nH]cn2)CCC1)[C@@H](C)O)[C@@H](C)O)C(=O)N[C@@H](CCC(=O)O)C(=O)N[C@@H](CO)C(=O)N[C@@H](CCCNC(=N)N)C(=O)N[C@@H](CCCNC(=N)N)C(=O)N[C@@H](C)C(=O)N[C@@H](CCCNC(=N)N)C(=O)N[C@@H](CCC(=O)O)C(=O)N[C@@H](Cc1ccccc1)C(=O)N[C@H](C(=O)N[C@@H](CCC(N)=O)C(=O)N[C@@H](Cc1c[nH]c2ccccc12)C(=O)N[C@@H](CC(C)C)C(=O)N[C@@H](CC(C)C)C(=O)N[C@@H](CCCCNC(=O)CC[C@H](NC(=O)CC[C@H](NC(=O)COCCOCCNC(=O)COCCOCCNC(=O)CC[C@H](NC(=O)CC[C@H](NC(=O)CCCCCCCCCCCCCCCCC(=O)O)C(=O)O)C(=O)O)C(=O)O)C(=O)O)C(=O)N[C@H](C(N)=O)[C@@H](C)O)C(C)C` [Example 61, N^ε28-[(4S)-4-carboxy-4-[[(4S)-4-carboxy-4-[[2-[2-[2-[[2-[2-[2-[[(4S)-4-carboxy-4-[[(4S)-4-carboxy-4-(17-carboxyheptadecanoylamino)butanoyl]amino]butanoyl]amino]ethoxy]ethoxy]acetyl]amino]ethoxy]ethoxy]acetyl]amino]butanoyl]amino]butanoyl]-[Acb2,Leu10,Glu15,Arg20,Glu21,Leu27,Lys28]-Glucagon amide] (H-H[Ac4c]QGTFTSDLSKYLESRRAREFVQWLLK([γGlu-γGlu-AEEA-AEEA-γGlu-γGlu-C18 diacid])T-NH2; N-terminus assumed), for which, in data set [1], the THT assay Lag time (Ex. 76) is 20 h. The EC50 on human GLP-1 receptor is 6 pM.
Regarding `CC(C)C[C@H](NC(=O)[C@H](Cc1ccc(O)cc1)NC(=O)[C@H](CCCCN)NC(=O)[C@H](CO)NC(=O)[C@H](CC(C)C)NC(=O)[C@H](CC(=O)O)NC(=O)[C@H](CO)NC(=O)[C@@H](NC(=O)[C@H](Cc1ccccc1)NC(=O)[C@@H](NC(=O)CNC(=O)[C@H](CCC(N)=O)NC(=O)C(C)(C)NC(=O)[C@@H](N)Cc1c[nH]cn1)[C@@H](C)O)[C@@H](C)O)C(=O)N[C@@H](CCC(=O)O)C(=O)N[C@@H](CO)C(=O)N[C@@H](CCCNC(=N)N)C(=O)N[C@@H](CCCNC(=N)N)C(=O)N[C@@H](C)C(=O)N[C@@H](CCCNC(=N)N)C(=O)N[C@@H](CCC(=O)O)C(=O)N[C@@H](Cc1ccccc1)C(=O)N[C@H](C(=O)N[C@@H](CCC(N)=O)C(=O)N[C@@H](Cc1c[nH]c2ccccc12)C(=O)N[C@@H](CC(C)C)C(=O)N[C@@H](CC(C)C)C(=O)N[C@@H](CCCCNC(=O)CC[C@H](NC(=O)CC[C@H](NC(=O)CC[C@H](NC(=O)CCCCCCCCCCCCCCCCC(=O)O)C(=O)O)C(=O)O)C(=O)O)C(=O)N[C@H](C(N)=O)[C@@H](C)O)C(C)C` [Example 41, N^ε28-[(4S)-4-carboxy-4-[[(4S)-4-carboxy-4-[[(4S)-4-carboxy-4-(17-carboxyheptadecanoylamino)butanoyl]amino]butanoyl]amino]butanoyl]-[Aib2,Leu10,Glu15, Arg20,Glu21,Leu27,Lys28]-Glucagon amide] (H-H[Aib]QGTFTSDLSKYLESRRAREFVQWLLK([γGlu-γGlu-γGlu-C18 diacid])T-NH2; N-terminus assumed), the THT assay Lag time (Ex. 76) in data set [1] is 45 h. Moreover, on human GLP-1 receptor, the EC50 came to 7 pM.
In data set [1], `CC(C)C[C@H](NC(=O)[C@H](Cc1ccc(O)cc1)NC(=O)[C@H](CCCCN)NC(=O)[C@H](CO)NC(=O)[C@H](CC(C)C)NC(=O)[C@H](CC(=O)O)NC(=O)[C@H](CO)NC(=O)[C@@H](NC(=O)[C@H](Cc1ccccc1)NC(=O)[C@@H](NC(=O)CNC(=O)[C@H](CCC(N)=O)NC(=O)C1(NC(=O)[C@@H](N)Cc2c[nH]cn2)CCC1)[C@@H](C)O)[C@@H](C)O)C(=O)N[C@@H](CCC(=O)O)C(=O)N[C@@H](CO)C(=O)N[C@@H](CCCCN)C(=O)N[C@@H](CCCNC(=N)N)C(=O)N[C@@H](C)C(=O)N[C@@H](CCCNC(=N)N)C(=O)N[C@@H](CCC(=O)O)C(=O)N[C@@H](Cc1ccccc1)C(=O)N[C@H](C(=O)N[C@@H](CCC(N)=O)C(=O)N[C@@H](Cc1c[nH]c2ccccc12)C(=O)N[C@@H](CC(C)C)C(=O)N[C@@H](CC(C)C)C(=O)N[C@@H](CCCCNC(=O)CNC(=O)[C@H](CO)NC(=O)[C@H](CCC(=O)O)NC(=O)CNC(=O)[C@H](CO)NC(=O)CC[C@H](NC(=O)CC[C@H](NC(=O)CCCCCCCCCCCCCCCCC(=O)O)C(=O)O)C(=O)O)C(=O)N[C@H](C(N)=O)[C@@H](C)O)C(C)C` [Example 36, N^ε28-[2-[[(2S)-2-[[(2S)-4-carboxy-2-[[2-[[(2S)-2-[[(4S)-4-carboxy-4-[[(4S)-4-carboxy-4-(17-carboxyheptadecanoylamino)butanoyl]amino]butanoyl]amino]-3-hydroxypropanoyl]amino]acetyl]amino]butanoyl]amino]-3-hydroxypropanoyl]amino]acetyl]-[Acb2,Leu10,Glu15,Lys17, Arg20,Glu21,Leu27,Lys28]-Glucagon amide] (I: H-H[Ac4c]QGTFTSDLSKYLESKRAREFVQWLLKT-NH2 / II: {C18 diacid-γGlu-γGlu}-SGESG; amide I:28-II:C; N-terminus assumed) showed a THT assay Lag time (Ex. 76) of 45 h. The EC50 at human GLP-1 receptor came to 2 pM.

For orientation: EC50 means the concentration giving half of the maximal effect.
